Read-outs that look alike come from different tables or passages of the source.
Tested on: Abutilon theophrasti
Test: Greenhouse post-emergence herbicidal activity (plant damage, 0 to 100% scale vs untreated control)
Assay type: in vivo
Details: 0.796 g ai/ha, ABUTH, AMS + NIS added, read-out: Solo Flumiclorac (0.796 g ai/ha) % activity
Text: For the post-emergence treatment, the test plants were first grown to 3.5 to 4.5 inch (8.9 to 11.4 cm) tall, and only then treated. Here, the herbicidal compositions were suspended or emulsified in water as distribution medium and sprayed using finely distributing nozzles.
Flumiclorac (commercial product name: Resource) was used as an emulsifiable concentrate having an active ingredient concentration of 100 g/l. Glufosinate (commercial product name: Liberty) was used as an aqueous soluble liquid of glufosinate ammonium having an active ingredient concentration of 280 g/l. Adjuvants of ammonium sulfate (AMS) and non-ionic surfactant (NIS) were added in all treatments. AMS and NIS were AMS Liquid and Induce at rates of 1680 g/ha and 0.25% (v/v), respectively.
The test period extended over 21 days after treatment (DAT). During this time, the plants were tended and their response to the individual treatments was evaluated.
The evaluation for the damage caused by the chemical compositions was carried out using a scale from 0 to 100%, compared to the untreated control plants. Here, 0 means no damage and 100 means complete destruction of the plants.
E = X + Y - (X.Y/100) • where X = effect in percent using flumiclorac at an application rate a; • Y = effect in percent using glufosinate at application rate b; • E = expected effect (in %) of flumiclorac plus glufosinate at application rates a + b.
The value E corresponds to the effect (plant damage or injury) which is to be expected if the activity of the individual compounds is just additive.

CCCCCOC(=O)COc1cc(N2C(=O)C3=C(CCCC3)C2=O)c(F)cc1Cl [Flumiclorac, flumiclorac-pentyl]
inhibition at 0.796 g/ha (168 h, 7 DAT): 53%
inhibition at 0.796 g/ha (336 h, 14 DAT): 45%
inhibition at 0.796 g/ha (504 h, 21 DAT): 41%
